Our source for the IC50 values is US5026703A, “Peptide oxytocin antagonists” (priority 1990, dated 1991).

Where two headings read alike, the source gives them in different places. *1 amine or outer side, *2 acyl side, *3 side chain or, on linkers, in order; H or OH if unused. Where a SMILES comes first, the peptide text is derived from it. [ ]: non-standard residue; d: D form. X12 = C=CCSC(=N[C@H](C(=O)[*:2])[C@@H](C)CC)[C@@H](Cc1ccccc1)N[*:1]; X13 = CC[C@H](C)[C@H](NC(=S)[C@@H](Cc1ccccc1)N[*:1])C(=O)[*:2]; X11 = CC(C)(C)OC(=O)CSC1=NN([*:1])[C@H](C(=O)[*:2])CC1; X2 = O=C([C@@H]1[C@@H](O)[C@@H](O)C=NN1[*:1])[*:2]; X10 = O=C1CC[C@@H](C(=O)[*:2])N([*:1])N1; Piz(1,6-dehydro) = O=C(O)[C@@H]1CCC=NN1; X7 = CSC1=NN([*:1])[C@H](C(=O)[*:2])CC1; dPiz(1,6-dehydro) = O=C(O)[C@H]1CCC=NN1; X16 = CN1CCC[C@@H](C(=O)[*:2])N1[*:1]; X15 = CN1CCC[C@H](C(=O)[*:2])N1[*:1]; X9 = O=C([C@@H]1C=CC=NN1[*:1])[*:2]; dNMeCha = CN[C@H](CC1CCCCC1)C(=O)O; X5 = O=C([C@@H]1CCCNN1[*:1])[*:2]; X1 = O=C([C@H]1CCCNN1[*:1])[*:2]; dNMeF = CN[C@H](Cc1ccccc1)C(=O)O; dCha = N[C@H](CC1CCCCC1)C(=O)O

One experiment deals with T1, uterine OT receptors (Rattus norvegicus, UniProt P70536).
T1 construct: from tissue; host or cells: uterus of DES-treated rats, crude membranes
T1 sequence (P70536 1-388): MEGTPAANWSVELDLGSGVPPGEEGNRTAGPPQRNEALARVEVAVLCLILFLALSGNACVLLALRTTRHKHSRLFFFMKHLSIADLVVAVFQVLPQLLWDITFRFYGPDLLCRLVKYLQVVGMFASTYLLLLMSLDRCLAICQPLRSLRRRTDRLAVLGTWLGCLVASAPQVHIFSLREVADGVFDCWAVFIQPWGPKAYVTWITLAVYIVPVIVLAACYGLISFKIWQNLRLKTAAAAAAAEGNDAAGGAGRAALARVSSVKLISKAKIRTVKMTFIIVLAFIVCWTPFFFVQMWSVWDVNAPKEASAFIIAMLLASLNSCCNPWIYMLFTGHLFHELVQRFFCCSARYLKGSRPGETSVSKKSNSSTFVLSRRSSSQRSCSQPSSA
Nature of the experiment: [3H]OT radioligand binding to uterine OT receptors, crude membrane preparation. On the procedure:
The high affinity binding of [^3 H]OT ([tyrosyl, 3,5-[^3 H]OT; 30-60 Ci/mmol; New England Nuclear Boston, Mass.) to uterine OT receptors was based on an assay* using a crude membrane preparation of uteri taken from diethylstilbestrol dipropionate (DES)-treated (0.3 mg/kg, ip; 18-24) rats. Competition studies were conducted at equilibrium (60 min; 22° C.) using 1 nM [^3 H]OT in the following assay buffer: 50 mM Tris-HCl, 5 mM MgCl2, and 0.1% BSA, pH 7.4. Nonspecific binding (10% of the total binding) was determined using 1 μM unlabeled OT and the binding reaction was terminated by filtration through glass fiber filters using a cell harvester (model 7019, Skatron, Inc., Sterling, Va.).
*Fuchs, A-R; Fuchs, F; Soloff, MS. 1985 J. Clin. Endocrinol. Metab. 60:37.

The target in the next experiment is AVP-V1 sites (Rattus norvegicus, UniProt P30560). Nature of the experiment: [3H]AVP radioligand binding to male rat liver crude membrane preparation (AVP-V1 sites). On the procedure: (§1) Nonspecific binding (5-10% of the total binding) was determined using 10 μM unlabeled AVP, and the binding reaction was terminated by filtration as described above for the [^3 H]OT binding assay.
(§2) +Butlen, D; Guillon, G; Rajerison, RM; Jard, S; Sawyer, WH; Manning, M. 1978 Mol Pharmacol 14:1006.

In a further experiment the target is AVP-V2 sites (Rattus norvegicus, UniProt Q00788). Put plainly: [3H]AVP radioligand binding to rat kidney medulla crude membrane preparation (AVP-V2 sites). As to conditions: rat kidney medulla membranes; 2 nM [3H]AVP; 30 min at 30° C.; read-out: Receptor Binding Results IC50 (nM) [^3 H]-AVP-V2. On the procedure: as §1, §2
Where [1] appears, read: uteri of DES-treated rats, 1 nM [3H]OT, 60 min, 22° C., inhibits specific binding by 50%, read-out: Receptor Binding Results IC50 (nM) [3H]OT.
The mark [2] stands for this setting: male rat liver membranes, 1 nM [3H]AVP, 30 min at 30° C., read-out: Receptor Binding Results IC50 (nM) [^3 H]-AVP-V1.

Chain of AVP-V2 sites (Q00788 whole entry): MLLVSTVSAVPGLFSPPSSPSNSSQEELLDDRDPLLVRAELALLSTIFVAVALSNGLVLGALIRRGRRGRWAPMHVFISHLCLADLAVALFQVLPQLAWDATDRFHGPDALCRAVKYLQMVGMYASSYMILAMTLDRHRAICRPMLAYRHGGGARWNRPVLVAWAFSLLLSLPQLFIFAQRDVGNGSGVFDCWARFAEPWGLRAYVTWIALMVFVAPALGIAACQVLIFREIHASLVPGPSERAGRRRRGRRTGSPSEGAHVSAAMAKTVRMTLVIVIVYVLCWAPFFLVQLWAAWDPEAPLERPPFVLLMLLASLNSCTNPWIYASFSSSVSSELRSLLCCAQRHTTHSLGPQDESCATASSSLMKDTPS
Chain of AVP-V1 sites (P30560 whole entry): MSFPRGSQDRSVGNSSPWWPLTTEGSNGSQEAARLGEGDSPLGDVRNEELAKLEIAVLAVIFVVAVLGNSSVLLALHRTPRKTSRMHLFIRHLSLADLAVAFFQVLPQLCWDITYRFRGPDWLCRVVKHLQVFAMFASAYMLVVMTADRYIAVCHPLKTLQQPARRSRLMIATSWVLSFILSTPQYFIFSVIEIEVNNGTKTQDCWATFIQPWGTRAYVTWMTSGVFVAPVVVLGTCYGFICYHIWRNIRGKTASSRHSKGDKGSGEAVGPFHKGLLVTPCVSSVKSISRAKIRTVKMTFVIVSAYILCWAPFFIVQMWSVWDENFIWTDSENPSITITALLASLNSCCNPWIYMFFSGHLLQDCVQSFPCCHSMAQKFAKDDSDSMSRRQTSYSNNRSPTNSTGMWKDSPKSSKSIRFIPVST

Take `CC[C@H](C)[C@@H]1NC(=O)[C@@H](CC2CCCCC2)NC(=O)[C@@H]2CCCN2C(=O)[C@@H](CC2CCCCC2)N(C)C(=O)[C@@H]2CCCNN2C(=O)[C@H]2CCCNN2C1=O` [Example 1, cyclo-[D-3-Cyclohexylalanyl-L-isoleucyl-D-hexahydro-3-pyridazinecarbonyl-L-hexahydro-3-pyridazinecarbonyl-3-cyclohexyl-N-methyl-D-alanyl-L-prolyl]] (cyclo(I[X1][X5][dNMeCha]P[dCha])): the 50% inhibitory concentration (IC50) (in general, the concentration that gives 50% inhibition) on uterine OT receptors (setting [1]) worked out at 725 nM; on AVP-V1 sites (setting [2]) it was 2400 nM; at AVP-V2 sites, 14800 nM.

In the case of `CC[C@H](C)[C@@H]1NC(=O)[C@@H](CC2CCCCC2)NC(=O)[C@@H]2CCCN2C(=O)[C@@H](CC2CCCCC2)N(C)C(=O)[C@@H]2CCC=NN2C(=O)[C@H]2CCC=NN2C1=O` [Example 2, cyclo-[D-3-Cyclohexylalanyl-L-isoleucyl-D-2,3,4,5-tetrahydro-3-pyidazinecarbonyl-L-2,3,4,5-tetrahydro-3-pyridazinecarbonyl-3-cyclohexyl-N-methyl-D-alanyl-L-prolyl]] (cyclo(I[dPiz(1,6-dehydro)][Piz(1,6-dehydro)][dNMeCha]P[dCha])), at uterine OT receptors (setting [1]), the IC50 worked out at 94 nM.

For the compound `CC[C@H](C)[C@@H]1NC(=O)[C@@H](Cc2ccccc2)NC(=O)[C@@H]2CCCN2C(=O)[C@@H](Cc2ccccc2)N(C)C(=O)[C@@H]2CCC(=O)NN2C(=O)[C@H]2CCC=NN2C1=O` [Example 3, cyclo-[D-Phenylalanyl-L-isoleucyl-D-2,3,4,5-tetrahydro-3-pyridazinecarbonyl-L-hexahydro-6-oxo-3-pyridazinecarbonyl-N-methyl-D-phenylalanyl-L-prolyl]] (cyclo(I[dPiz(1,6-dehydro)][X10][dNMeF]P[dF])), the IC50 on uterine OT receptors (setting [1]) amounted to 20 nM; on AVP-V1 sites (setting [2]) it was 4700 nM; at AVP-V2 sites, 17000 nM.

`CC[C@H](C)[C@@H]1NC(=O)[C@@H](Cc2ccccc2)NC(=O)[C@@H]2CCCN2C(=O)[C@@H](Cc2ccccc2)N(C)C(=O)[C@@H]2CCC(=O)NN2C(=O)[C@H]2CCCNN2C1=O` [Example 4, cyclo-[D-Phenylalanyl-L-isoleucyl-D-hexahydro-3-pyridazinecarbonyl-L-hexahydro-6-oxo-3-pyridazinecarbonyl-N-methyl-D-phenylalanyl-L-prolyl]] (cyclo(I[X1][X10][dNMeF]P[dF])): the IC50 at uterine OT receptors was found to be 217 nM; on AVP-V1 sites (setting [2]), 13900 nM; at AVP-V2 sites, 18900 nM.

On to `CC[C@H](C)[C@@H]1NC(=O)[C@@H](Cc2ccccc2)NC(=O)[C@@H]2CCCN2C(=O)[C@@H](Cc2ccccc2)N(C)C(=O)[C@@H]2CCC(SC)=NN2C(=O)[C@H]2CCC=NN2C1=O` [Example 5, cyclo-[D-Phenylalanyl-L-isoleucyl-D-2,3,4,5-tetrahydro-3-pyidazinecarbonyl-L-2,3,4,5-tetrahydro-6-methylthio-3-pyridazinecarbonyl-N-methyl-D-phenylalanyl-L-prolyl]] (cyclo(I[dPiz(1,6-dehydro)][X7][dNMeF]P[dF])), for which the half-inhibitory concentration (IC50) on uterine OT receptors (setting [1]) amounted to 27 nM; on AVP-V1 sites (setting [2]) it was 820 nM; at AVP-V2 sites, 1020 nM.

Regarding `CC[C@H](C)[C@@H]1NC(=O)[C@@H](Cc2ccccc2)NC(=O)[C@@H]2CCCN2C(=O)[C@@H](Cc2ccccc2)N(C)C(=O)[C@@H]2CCCN(C)N2C(=O)[C@H]2CCCN(C)N2C1=O` [Example 6, cyclo-[D-Phenylalanyl-L-isoleucyl-D-hexahydro-1-methyl-3-pyridazinecarbonyl-L-hexahydro-1-methyl-3-pyridazinecarbonyl-N-methyl-D-phenylalanyl-L-prolyl]] (cyclo(I[X15][X16][dNMeF]P[dF])), the IC50 at uterine OT receptors is 6250 nM.

For the compound `CC[C@H](C)[C@@H]1NC[C@@H](Cc2ccccc2)NC(=O)[C@@H]2CCCN2C(=O)[C@@H](Cc2ccccc2)N(C)C(=O)[C@@H]2CCC=NN2C(=O)[C@H]2CCC=NN2C1=O` [Example 7, cyclo-[N-(2-Amino-3-phenylpropyl)-L-isoleucyl-D-2,3,4,5-tetrahydro-3-pyridazinecarbonyl-L-2,3,4,5-tetrahydro-3-pyridazinecarbonyl-N-methyl-D-phenylalanyl-L-prolyl]], the IC50 was 30000 nM on uterine OT receptors (setting [1]), more than 30000 nM at AVP-V1 sites (setting [2]) and more than 30000 nM on AVP-V2 sites.

Consider `CC[C@H](C)[C@@H]1NC(=O)[C@@H](Cc2ccccc2)NC(=O)[C@@H]2CCCN2C(=O)[C@@H](Cc2ccccc2)N(C)C(=O)[C@@H]2C=CC=NN2C(=O)[C@H]2CCC=NN2C1=O` [Example 8, cyclo-[D-Phenylalanyl-L-isoleucyl-D-2,3,4,5-tetrahydro-3-pyridazinecarbonyl-L-2,3-dihydro-3-pyridazine-carbonyl-N-methyl-D-phenylalanyl-L-prolyl]] (cyclo(I[dPiz(1,6-dehydro)][X9][dNMeF]P[dF])), for which the IC50 at uterine OT receptors (setting [1]) came out at 20 nM; at AVP-V1 sites (setting [2]), 1410 nM; at AVP-V2 sites, 1350 nM.

For `CC[C@H](C)[C@@H]1NC(=O)[C@@H](Cc2ccccc2)NC(=O)[C@@H]2CCCN2C(=O)[C@@H](Cc2ccccc2)N(C)C(=O)[C@@H]2CCC(SCC(=O)OC(C)(C)C)=NN2C(=O)[C@H]2CCC=NN2C1=O` [Example 9, cyclo-[D-Phenylalanyl-L-isoleucyl-D-2,3,4,5-tetrahydro-3-pyridazinecarbonyl-6-[[2-(1,1-dimethylethoxy)-2-oxoethyl]thio]-L-2,3,4,5-tetrahydro-3-pyridazine-carbonyl-N-methyl-D-phenylalanyl-L-prolyl]] (cyclo(I[dPiz(1,6-dehydro)][X11][dNMeF]P[dF])), the values for the IC50 on uterine OT receptors (setting [1]), on AVP-V1 sites and at AVP-V2 sites were 564 nM, 10000 nM and 10000 nM, respectively.

On to `CC[C@H](C)[C@@H]1NC(=S)[C@@H](Cc2ccccc2)NC(=O)[C@@H]2CCCN2C(=O)[C@@H](Cc2ccccc2)N(C)C(=O)[C@@H]2CCC=NN2C(=O)[C@H]2CCC=NN2C1=O` [Example 10, cyclo-[D-Thiophenylalanyl-L-isoleucyl-D-2,3,4,5-tetrahydro-3-pyridazinecarbonyl-L-2,3,4,5-tetrahydro-3-pyridazinecarbonyl-N-methyl-D-phenylalanyl-L-prolyl]] (cyclo(P[X13][dPiz(1,6-dehydro)][Piz(1,6-dehydro)][dNMeF])), for which the IC50 on uterine OT receptors (setting [1]) worked out at 1 nM; at AVP-V1 sites (setting [2]) it was 300 nM; on AVP-V2 sites, 270 nM.

Regarding `CC[C@H](C)[C@@H]1NC(=S)[C@@H](Cc2ccccc2)NC(=S)[C@@H]2CCCN2C(=O)[C@@H](Cc2ccccc2)N(C)C(=O)[C@@H]2CCC=NN2C(=O)[C@H]2CCC=NN2C1=O` [Example 11, cyclo-[D-Thiophenylalanyl-L-isoleucyl-D-2,3,4,5-tetrahydro-3-pyridazinecarbonyl-L-2,3,4,5-tetrahydro-3-pyridazinecarbonyl-N-methyl-D-phenylalanyl-L-thioprolyl]], the half-inhibitory concentration (IC50) on uterine OT receptors (setting [1]) was found to be 4.9 nM; at AVP-V1 sites (setting [2]), 200 nM; at AVP-V2 sites, 430 nM.

For `C=CCSC1=N[C@@H]([C@@H](C)CC)C(=O)N2N=CCC[C@@H]2C(=O)N2N=CCC[C@H]2C(=O)N(C)[C@H](Cc2ccccc2)C(=O)N2CCC[C@H]2C(=O)N[C@@H]1Cc1ccccc1` [Example 12, cyclo-[(R)-N-(2-amino-3-phenyl-1-(2-propenylthio)-propylidene)-L-isoleucyl-D-2,3,4,5-tetrahydro-3-pyridazinecarbonyl-L-2,3,4,5-tetrahydro-3-pyridazine-carbonyl-N-methyl-D-phenylalanyl-L-prolyl]] (cyclo(P[X12][dPiz(1,6-dehydro)][Piz(1,6-dehydro)][dNMeF])), the IC50 was 710 nM on uterine OT receptors (setting [1]), more than 10000 nM at AVP-V1 sites (setting [2]) and more than 10000 nM on AVP-V2 sites.

For `CC[C@H](C)[C@@H]1NC(=O)[C@@H](Cc2ccccc2)NC(=O)[C@@H]2CCCN2C(=O)[C@@H](Cc2ccccc2)N(C)C(=O)[C@@H]2[C@@H](O)[C@@H](O)C=NN2C(=O)[C@H]2CCC=NN2C1=O` [Example 13, cyclo-[D-Phenylalanyl-L-isoleucyl-D-2,3,4,5-tetrahydro-3-pyridazinecarbonyl-(3α,4β,5β)-4,5-dihydroxy-L-2,3,4,5-tetrahydro-3-pyridazinecarbonyl-N-methyl-D-phenylalanyl-L-prolyl]] (cyclo(I[dPiz(1,6-dehydro)][X2][dNMeF]P[dF])), the IC50 at uterine OT receptors (setting [1]) is 785 nM; at AVP-V1 sites (setting [2]), 10000 nM; at AVP-V2 sites, more than 10000 nM.
